Values of other authors, collected in patent US6353028B2, “Composition and method for topically treating Peyronie's Disease, Dupuytren's hand contracture, Ledderhose Fibrosis, erectile dysfunction arising from plaque accumulations, and scarring” (priority 1998, dated 2002).

System: Peyronie's disease
Conditions: intra-lesional injection

COc1ccc(CCN(C)CCCC(C#N)(c2ccc(OC)c(OC)c2)C(C)C)cc1OC (stereo not shown) [Verapamil]
success of intra-lesional injections in Peyronie's disease: very limited success
